One assay has as its system KpnI. More on the design: method as in PMID 25581012. The note with it: cited from earlier work.
A further assay concerns SacI. More on the design: method as in PMID 25581012. Conditions: cited from earlier work.
Another assay concerns XapI. More on the design: method as in PMID 25581012. Conditions: cited from earlier work.
In the next assay the target is T1, EcoRI (Escherichia coli, UniProt P00642).
T1 construct: purchased Thermo Fisher Scientific ER0271
The format is biochemical.

Another assay has as its system VspI. The format is biochemical. The note with it: for pIC50: Nl-pBR322 substrate, 20 min digestion at 37°C, Buffer O.
Assay [1] deals with EcoRI and VspI. In words: Co-digestion assay of Nl-pBR322 with EcoRI and VspI (dual RE system). The format is biochemical. The method, then:
(§1) The digestion time was either variable or fixed at 120 min for the variable concentration experiment to achieve full digestion. The composition of the components with the co-digestion assays was more complex than single digestion systems due to the need for simultaneously optimising the activity of each RE in the non-ideal buffer system of the other RE.

The subject of assay [2] is T2, EcoRI and VspI.
T2 construct: purchased Thermo Fisher Scientific ER0271, ER0911
The assay is described as above. Format: biochemical. The method, then: as §1

Assay [3] addresses T3, HindIII (Haemophilus influenzae, UniProt P43870). The note with it: read-out: IC50 HindIII; Nl-pBR322 substrate, 40 min digestion at 37°C, Buffer R.
Protocol: (§2) Digestion time course studies were conducted for each RE by incubating 2 μl of NdeI-linearised pBR322 (2.5 ng/μl), 1 μl of RE (1.25 U/μl), 2 μl of appropriate buffer, and 15 μl of molecular biology grade water at 37°C for various times (Supplementary Figure S1). […] These times were used as the digestion time for the RE inhibition assays.
(§3) To determine the effects of β-CDsul treatment on REs, Nl-pBR322 was incubated at 37°C with EcoRI, VspI, or HindIII for the previously determined amount of time.
(§4) β-CDsul and EDTA stock solutions were made in molecular biology grade water, and dilution series were prepared at appropriate concentrations to give the necessary final concentrations of each in the assay mixture. The assay mixture composition was 2 μl of Nl-pBR322 (2.5 ng/μl), 1 μl of RE (1.25 U/μl), 2 μl of appropriate buffer, 1 μl of β-CDsul or EDTA at desired concentration, and 14 μl of molecular biology grade water. As a negative control, 1 μl extra of microbiology grade water was used instead of EDTA or β-CDsul. After the appropriate amount of incubation time at 37°C, the REs were thermally inactivated by incubation at 65°C for 20 min.
(§5) Electrophoresis gel solution was prepared using 0.8% (w/v) agarose (Thermo Scientific™ Agarose I (Molecular Biology Grade)) with 1× TBE Buffer (Thermo Scientific™ TBE Buffer (Tris–borate–EDTA) (10×)). The mixture was heated until the agarose was completely dissolved and the solution became clear. Sybr Safe DNA stain (1% (v/v), Invitrogen™ SYBR™ Safe DNA Gel Stain) was added into the agarose solution. The final solution was poured into the gel tray and cooled down to room temperature (25°C). […]
(§6) Gel images were captured using a UV-transilluminator capturing system (Syngene™ Ingenius 3 Manual Gel Documentation System) with the following parameters: resolution: 3.0 MP, bit depth: 12/16 bit, and wavelength: 302 nm. The images were analysed using GelAnalyzer [19] software by calculating the normalised intensities of fragment bands.
Another assay relates to Nrul. Also on record: method as in PMID 25126898. The note with it: digestion of λ DNA; cited from earlier work.
For assay [4], the target named is T3, HindIII. Also on record: purchased Thermo Fisher Scientific ER0501; method as in PMID 25126898. The note with it: digestion of λ DNA; cited from earlier work.
The subject of a further assay is REs. Also on record: method as in PMID 25126898. Conditions: cited from earlier work.
In assay [5] the target is T3, HindIII. In words: biochemical. Conditions: Nl-pBR322 substrate, 40 min digestion at 37°C, Buffer R.
Protocol: as §2, §3, §4, §5, §6
The mark [6] stands for this setting: Nl-pBR322 substrate, 20 min digestion at 37°C, Buffer EcoRI, read-out: IC50 EcoRI.
[7] abbreviates: 10 μM β-CDsul, time course 30–240 min.

Structures are written as SMILES. pIC50: −log10 of the molar value. Values joined by “and” are separate entries in the source; they are usually repeats but may differ in a detail not shown here. Equal entries are not always repeated. Structures can show the parent of a compound that is named as a salt. Where two headings read alike, the source gives them in different places.

T1 sequence (P00642 2-277): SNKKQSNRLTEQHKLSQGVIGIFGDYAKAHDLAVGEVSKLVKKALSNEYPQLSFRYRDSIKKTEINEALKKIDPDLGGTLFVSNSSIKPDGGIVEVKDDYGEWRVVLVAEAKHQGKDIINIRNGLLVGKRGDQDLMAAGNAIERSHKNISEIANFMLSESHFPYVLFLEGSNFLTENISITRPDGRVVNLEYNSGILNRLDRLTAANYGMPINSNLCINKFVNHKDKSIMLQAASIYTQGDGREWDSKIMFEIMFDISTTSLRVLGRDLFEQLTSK
T3 sequence (P43870 whole entry): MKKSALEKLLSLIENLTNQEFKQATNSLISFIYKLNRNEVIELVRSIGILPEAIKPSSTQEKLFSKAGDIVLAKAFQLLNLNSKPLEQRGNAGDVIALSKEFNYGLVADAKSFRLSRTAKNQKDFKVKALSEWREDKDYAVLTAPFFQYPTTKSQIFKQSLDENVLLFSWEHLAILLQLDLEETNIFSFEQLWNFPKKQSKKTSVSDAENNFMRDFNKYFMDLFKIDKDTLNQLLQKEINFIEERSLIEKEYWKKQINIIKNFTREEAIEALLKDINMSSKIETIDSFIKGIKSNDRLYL

Take `O=C1N2CN3C(=O)N4CN5C(=O)N6CN7C(=O)N8CN9C(=O)N%10CN%11C(=O)N%12CN%13C(=O)N%14CN1C1C2N2CN%15C(=O)N(CN%16C(=O)N(CN%17C(=O)N(CN%18C(=O)N(CN%19C(=O)N(CN%20C(=O)N(CN1C2=O)C%14C%13%20)C%12C%11%19)C%10C9%18)C8C7%17)C6C5%16)C4C3%15` (stereo not drawn) [CB7]: the pIC50 (usually −log10 of the IC50, conventionally taken in molar units) is about 3.70 in the assay with KpnI (linearised pGL3-Basic DNA); about 4.05 in the assay with KpnI (plasmid pGL3-Basic DNA); about 3.46 in the assay on SacI (linearised pGL3-Basic DNA); about 3.60 with SacI (plasmid pGL3-Basic DNA); about 3.30 with XapI (linearised pGL3-Basic DNA); about 3.30 with XapI (plasmid pGL3-Basic DNA).

Take `O=S(=O)(O)OCC1OC2OC3C(COS(=O)(=O)O)OC(OC4C(COS(=O)(=O)O)OC(OC5C(COS(=O)(=O)O)OC(OC6C(COS(=O)(=O)O)OC(OC7C(COS(=O)(=O)O)OC(OC8C(COS(=O)(=O)O)OC(OC1C(OS(=O)(=O)O)C2OS(=O)(=O)O)C(OS(=O)(=O)O)C8OS(=O)(=O)O)C(OS(=O)(=O)O)C7OS(=O)(=O)O)C(OS(=O)(=O)O)C6OS(=O)(=O)O)C(OS(=O)(=O)O)C5OS(=O)(=O)O)C(OS(=O)(=O)O)C4OS(=O)(=O)O)C(OS(=O)(=O)O)C3OS(=O)(=O)O` (stereo not drawn) [β-CDsul, β-cyclodextrin sulfate]: on EcoRI (EcoRI vs HindIII or VspI), the “fold difference in IC50 values, EcoRI vs HindIII or VspI” value is recorded as 13- to 27 fold. For the same compound, the pIC50 is 5.30 at EcoRI (setting [6]); 3.88 in the assay with VspI; 4.19 on HindIII [3]; 5.52 in the assay on Nrul; 5.22 at HindIII [4]. For the same compound, the “fold more potent at inhibiting EcoRI compared with HindIII” value on EcoRI (ratio of IC50s, EcoRI vs HindIII) is reported as 13 fold. The “fold more potent at inhibiting EcoRI compared with VspI” value on EcoRI (ratio of IC50s, EcoRI vs VspI) was “about 27 fold”. In addition, the “fold difference in IC50 against VspI and HindIII” value in the assay on VspI (VspI vs HindIII) is “two-fold”. Besides, the “time of maximum concentration of fragment A in EcoRI/VspI co-digestion” value in the assay on EcoRI and VspI [1] (setting [7]) is on record as 60 min. The “digestion in EcoRI/VspI co-digestion” value in the assay on EcoRI and VspI [1] (Five hundred micromolar β-CDsul, 120 min) is “no digestion by either RE”. The “decrease of fragment A concentration (EcoRI action) in EcoRI/VspI co-digestion” value in the assay on EcoRI and VspI [2] (setting [7]) was “does not decrease until 240 min”. Also, in the assay with EcoRI and VspI [2] (between 5 and 10 μM β-CDsul, 120 min, still no Nl-pBR322, VspI less affected), the “EcoRI inhibition in EcoRI/VspI co-digestion (fragment A concentration)” value is “significant increase in EcoRI inhibition”.

Consider `OC[C@H]1O[C@@H]2O[C@H]3[C@H](O)[C@@H](O)[C@@H](O[C@H]4[C@H](O)[C@@H](O)[C@@H](O[C@H]5[C@H](O)[C@@H](O)[C@@H](O[C@H]6[C@H](O)[C@@H](O)[C@@H](O[C@H]7[C@H](O)[C@@H](O)[C@@H](O[C@H]8[C@H](O)[C@@H](O)[C@@H](O[C@H]1[C@H](O)[C@H]2O)O[C@@H]8CO)O[C@@H]7CO)O[C@@H]6CO)O[C@@H]5CO)O[C@@H]4CO)O[C@@H]3CO` [β-CD], for which the “inhibition of REs” value in the assay with REs is “no inhibition was observed”.

In the case of `O=C(O)CN(CCN(CC(=O)O)CC(=O)O)CC(=O)O` [EDTA], the pIC50 was 4.74 and 4.77 at EcoRI (setting [6]); 4.77 to 4.92 on EcoRI (all three enzymes, Nl-pBR322, read-out: range of IC50 values across EcoRI, HindIII and VspI); 4.92 with VspI; 4.89 and 4.92 against HindIII [5].

The record behind these values is publication PMC13071375, “Restriction endonuclease selective inhibition by β-cyclodextrin sulfate” (Bioscience Reports, 2025).
